Reference: PubChem BioAssay AID330 (DTP/NCI, 2004)
Values joined by “and” are separate entries in the source; they are usually repeats but may differ in a detail not shown here. Equal entries are not always repeated. Toxic doses and inconclusive results are not listed. How the source made its calls: active means survival T/C of 150% or more; inactive means T/C below 125% in these data.

System: P388 leukemia ip, CD2F1 mice, survival T/C
Assay: NCI In Vivo Anticancer Drug Screen. Data for tumor model P388 Leukemia (intraperitoneal) in CD2F1 (CDF1) mice
Settings: endpoint: median survival time, higher = longer survival
Procedure, shortened: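 Mice carrying the transplanted tumor received test compound or vehicle. Survival was recorded in each group, and the value is the treated-group measurement divided by that of the vehicle-treated control group.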

[1] = dose: 12.5 mg/kg/injection, schedule: Q01DX005 (ip), vehicle: Klucel (hydroxypropylcellulose) (HPC)
[2] = dose: 25.0 mg/kg/injection, schedule: Q01DX005 (ip), vehicle: Klucel (hydroxypropylcellulose) (HPC)
[3] = dose: 50.0 mg/kg/injection, schedule: Q01DX005 (ip), vehicle: Klucel (hydroxypropylcellulose) (HPC)

Measured: T/C

C[Si](C)(C)/N=C/O[Si](C)(C)C
inactive: dose: 60.0 mg/kg/injection, schedule: Q01DX005 (ip), vehicle: saline 100 % of control | dose: 120.0 mg/kg/injection, schedule: Q01DX005 (ip), vehicle: saline 101 % of control | dose: 240.0 mg/kg/injection, schedule: Q01DX005 (ip), vehicle: saline 108 % of control

COc1ccc(N2C(=O)CC(n3ccccc3=O)C2=O)cc1 (stereo not given)
inactive: dose: 100.0 mg/kg/injection, schedule: Q04DX002 (ip), vehicle: saline with Tween-80 100 % of control | dose: 200.0 mg/kg/injection, schedule: Q04DX002 (ip), vehicle: saline with Tween-80 99 % of control | dose: 400.0 mg/kg/injection, schedule: Q04DX002 (ip), vehicle: saline with Tween-80 101 % of control

CCCCCCCCCCCC(CCCCCCCCCC)CCCCCCCCCC
inactive: dose: 50.0 mg/kg/injection, schedule: Q01DX001 (ip), vehicle: saline with Tween-80 109 % of control | dose: 100.0 mg/kg/injection, schedule: Q01DX001 (ip), vehicle: saline with Tween-80 104 % of control | dose: 200.0 mg/kg/injection, schedule: Q01DX001 (ip), vehicle: saline with Tween-80 100 % of control

CCN(CC)CN1C(=O)C2C3C=CC(C2C1=O)C1C2C(=O)N(CN(CC)CC)C(=O)C2C31 (stereo not given)
inactive: dose: 25.0 mg/kg/injection, schedule: Q01DX009 (ip), vehicle: saline with Tween-80 103 % of control | dose: 50.0 mg/kg/injection, schedule: Q01DX009 (ip), vehicle: saline with Tween-80 102 % of control and 111 % of control | dose: 100.0 mg/kg/injection, schedule: Q01DX009 (ip), vehicle: saline with Tween-80 116 % of control and 117 % of control and 119 % of control | dose: 200.0 mg/kg/injection, schedule: Q01DX009 (ip), vehicle: saline with Tween-80 119 % of control | dose: 400.0 mg/kg/injection, schedule: Q01DX009 (ip), vehicle: saline with Tween-80 111 % of control

CC(=O)OCC1OC(N(C(C)=O)c2nc(Cl)c3cc[nH]c3n2)C(OC(C)=O)C1OC(C)=O (stereo not given)
inactive: dose: 25.0 mg/kg/injection, schedule: Q04DX003 (ip), vehicle: other 102 % of control | dose: 50.0 mg/kg/injection, schedule: Q04DX003 (ip), vehicle: other 105 % of control | dose: 100.0 mg/kg/injection, schedule: Q04DX003 (ip), vehicle: other 105 % of control | dose: 200.0 mg/kg/injection, schedule: Q04DX003 (ip), vehicle: other 104 % of control | dose: 400.0 mg/kg/injection, schedule: Q04DX003 (ip), vehicle: other 108 % of control

O=C(Nc1ccc(Cl)cc1)Nc1nnc(-c2cc([N+](=O)[O-])cc([N+](=O)[O-])c2)o1
inactive: dose: 60.0 mg/kg/injection, schedule: Q01DX005 (ip), vehicle: saline with Tween-80 98 % of control | dose: 120.0 mg/kg/injection, schedule: Q01DX005 (ip), vehicle: saline with Tween-80 92 % of control | dose: 240.0 mg/kg/injection, schedule: Q01DX005 (ip), vehicle: saline with Tween-80 86 % of control

O=C(Nc1cccc2nsnc12)c1ccc(C(=O)Nc2cccc3nsnc23)cc1
inactive: dose: 0.46 mg/kg/injection, schedule: Q01DX005 (ip), vehicle: Klucel (hydroxypropylcellulose) (HPC) 97 % of control | dose: 0.93 mg/kg/injection, schedule: Q01DX005 (ip), vehicle: Klucel (hydroxypropylcellulose) (HPC) 96 % of control | dose: 1.87 mg/kg/injection, schedule: Q01DX005 (ip), vehicle: Klucel (hydroxypropylcellulose) (HPC) 98 % of control | dose: 30.0 mg/kg/injection, schedule: Q01DX005 (ip), vehicle: Klucel (hydroxypropylcellulose) (HPC) 86 % of control | dose: 240.0 mg/kg/injection, schedule: Q01DX005 (ip), vehicle: Klucel (hydroxypropylcellulose) (HPC) 98 % of control

CC12CC(=O)CC1(C)CC(=O)C2 (stereo not given)
inactive: dose: 12.5 mg/kg/injection, schedule: Q01DX009 (ip), vehicle: saline 92 % of control | dose: 25.0 mg/kg/injection, schedule: Q01DX009 (ip), vehicle: saline 92 % of control | dose: 50.0 mg/kg/injection, schedule: Q01DX009 (ip), vehicle: saline 86 % of control and 97 % of control

O=C([O][Bi]([c]1ccccc1)[c]1ccccc1)c1ccccc1
inactive: dose: 6.25 mg/kg/injection, schedule: Q01DX005 (ip), vehicle: Klucel (hydroxypropylcellulose) (HPC) 113 % of control | [1] 106 % of control | [2] 102 % of control and 106 % of control | [3] 122 % of control

CCOc1ccc2ccccc2c1C(Cc1ccccc1)NC (stereo not given)
inactive: [1] 99 % of control | [2] 93 % of control | [3] 99 % of control and 100 % of control

CCCC[S][Sn]([CH2]CCC)([CH2]CCC)[S]CCCC
active: dose: 3.0 mg/kg/injection, schedule: Q01DX009 (ip), vehicle: saline with Tween-80 152 % of control
inactive: dose: 0.75 mg/kg/injection, schedule: Q01DX009 (ip), vehicle: saline with Tween-80 121 % of control

COc1ccc(S(=O)(=O)N/N=C/c2cnc[nH]2)cc1
inactive: [1] 100 % of control | [2] 97 % of control | [3] 97 % of control | dose: 100.0 mg/kg/injection, schedule: Q01DX005 (ip), vehicle: Klucel (hydroxypropylcellulose) (HPC) 88 % of control | dose: 200.0 mg/kg/injection, schedule: Q01DX005 (ip), vehicle: Klucel (hydroxypropylcellulose) (HPC) 90 % of control and 94 % of control | dose: 400.0 mg/kg/injection, schedule: Q01DX005 (ip), vehicle: Klucel (hydroxypropylcellulose) (HPC) 117 % of control
